On the set-up of series [1]: species or system Male Sprague-Dawley rats. The note with it: rat, in vivo, po, 100 mg/kg. How it is done: Oral gavage (PO) and/or intracolonic (IC) dosing solutions of delivery agent compound and human parathyroid hormone residues 1-34 (PTH) in water were prepared. A solution of the compound was made either with the sodium salt of the compound or by converting the free acid to its sodium salt. Typically, a solution of the compound was prepared in water and stirred, adding one equivalent of sodium hydroxide (1.0 N) when making the sodium salt. The final dosing solutions were prepared by mixing the compound solution with a PTH stock solution (typically having a concentration of 5 mg PTH/ml) and diluting to the desired volume (usually 3.0 ml). The final compound, PTH and volume dose amounts are listed below in Table 4.
The typical dosing and sampling protocols were as follows. Male Sprague-Dawley rats weighing between 200-250g were fasted for 24 hours and administered ketamine (44 mg/kg) and chlorpromazine (1.5 mg/kg) 15 minutes prior to dosing. A dosing group of five rats was administered one of the dosing solutions. For oral gavage (PO), an 11cm Rusch 8 French catheter was adapted to a 1 ml syringe with a pipette tip. The syringe was filled with dosing solution by drawing the solution through the catheter, which was then wiped dry. The catheter was placed down the esophagus leaving 1 cm of tubing past the rat's incisors. Solution was administered by pressing the syringe plunger. For intracolonic (IC) dosing, a 7.5 cm Rusch catheter tube (French 8 or 6) was adapted to a syringe with an Eppendorf pipette tip. The syringe was filled with the dosing solution by drawing the solution through the catheter tube. The catheter tube was wiped dry. K-Y jelly was applied to the tip, avoiding contact with the eye of the tube, and the tube was inserted into the colon through the anus until the tube was no longer visible. The solution was injected by pressing the syringe plunger, and the tube was removed.
Blood samples were collected serially from the tail artery, typically 0, 15, 30, 45, 60 and 90 minutes after oral administration and 0, 10, 20, 30, 60 and 90 minutes after IC administration. Serum PTH concentrations were quantified by a PTH radioimmunoassay kit (Kit # RIK 6101 from Peninsula Laboratories, Inc., San Carlos, CA). Previous studies indicated baseline values of about zero. Results from the five rats in each group were averaged for each time point. The maximum is reported below in Table 4.

Series [2] is described as follows: Intracolonic delivery of heparin with delivery agent compound; heparin activity by activated partial thromboplastin time (APTT). The class given is in vivo, Male Sprague-Dawley rats. Particulars: rats, intracolonic (IC); compound 50 mg/kg, heparin 25 mg/kg, volume 1 ml/kg; maximum of time-point means of five rats; baseline about 20 sec. On the procedure: Oral gavage (PO) and/or intracolonic (IC) dosing solutions containing a delivery agent compound and heparin sodium USP in 25% aqueous propylene glycol were prepared. Either the sodium salt of the compound was used or the free acid was converted to the sodium salt with one equivalent of sodium hydroxide. Typically, delivery agent compound and heparin (about 166-182 IU/mg) were mixed by vortex as dry powders. This dry mixture was dissolved in 25% v/v aqueous propylene glycol, vortexed and placed in a sonicator (about 37 °C). The pH was adjusted to about 7 (6.5 to 8.5) with aqueous sodium hydroxide (2N). The dosing solution was sonicated to produce a clear solution. The final volume was adjusted to about 3.0 ml. The final delivery agent compound dose, heparin dose and volume dose amounts are listed below in Table 2.
The typical dosing and sampling protocols were as follows. […]
Citrated blood samples were collected by cardiac puncture following the administration of ketamine (88 mg/kg), typically at 0.25, 0.5, 1.0 and 1.5 hours after administration. Heparin activity was determined by utilizing the activated partial thromboplastin time (APTT) according to the method of Henry, J.B., Clinical Diagnosis and Management by Laboratory Methods, Philadelphia, PA, W.B. Saunders (1979). […]

On the set-up of series [3]: species or system Male Sprague-Dawley rats. The note with it: rat, in vivo, po, 150 mg/kg. On the procedure: Oral dosing (PO) compositions of delivery agent compound and salmon calcitonin (sCT) in water were prepared. Typically, 450 mg of compound was added to 2.0 ml of water. Either the sodium salt of the compound was used or the free acid was converted to the sodium salt by stirring the resultant solution and adding one equivalent of sodium hydroxide (1.0 N) and diluting with water. The solution was vortexed, then heated (about 37°C) and sonicated. The pH was adjusted to about 7 (6.5 to 8.5) with sodium hydroxide or hydrochloric acid. 90 µg sCT from a stock solution was added to the solution. Water was then added to bring the total volume to about 3.0 ml (varies depending on solubility of the delivery agent compound) and vortexed. The final delivery agent compound dose, sCT dose and volume dose amounts are listed below in Table 1.
The typical dosing and sampling protocols were as follows. Male Sprague-Dawley rats weighing between 200-250g were fasted for 24 hours and administered ketamine (44 mg/kg) and chlorpromazine (1.5 mg/kg) 15 minutes prior to dosing. A dosing group of five rats was administered one of the dosing solutions. For oral dosing, an 11 cm Rusch 8 French catheter was adapted to a 1 ml syringe with a pipette tip. The syringe was filled with dosing solution by drawing the solution through the catheter, which was then wiped dry. The catheter was placed down the esophagus leaving 1 cm of tubing past the incisors. Solution was administered by pressing the syringe plunger.
Blood samples were collected serially from the tail artery, typically at 0, 10, 20, 30, 60 and 90 minutes after administration. Serum sCT was determined by testing with an EIA kit (Kit # EIAS-6003 from Peninsula Laboratories, Inc., San Carlos, CA). Numbers were adjusted according to baseline values obtained at 0 minutes. The limit of the assay is 80 pg/ml. The results from the five rats in each dosing group were averaged for each time point. The maximum is reported below in Table 1.

Each structure is given as a SMILES string.

As to `O=C(O)CCCCCCc1nnc(-c2ccccc2O)o1` [Compound 2], the “Mean Peak Serum [PTH] (pg/ml) ± SD” value in series [1] is 498.55 ± 237.83 pg/mL. The “Mean Peak APTT (sec) ± SD” value in series [2] was determined as 52.8 ± 31.9 s.
In the case of `O=C(O)CCCCc1nnc(-c2ccccc2O)o1` [Compound 3], in series [1], the AUC worked out at 2717.51 and the “Mean Peak Serum [PTH] (pg/ml) ± SD” value came to 57.88 pg/mL.
For `O=C(O)CCCCCCCc1nnc(-c2ccccc2O)o1` [Compound 4], in series [1], the AUC is 6852.12 and the “Mean Peak Serum [PTH] (pg/ml) ± SD” value was 330.74 ± 410.57 pg/mL.
Consider `O=C(O)CCCCCCc1nnc(-c2cc(Cl)ccc2O)o1` [Compound 5], for which the “Mean Peak Serum Set (pg/ml ± SD)(SE)” value in series [3] was 393 ± 431 (193) pg/ml. In series [1], the AUC came out at 509.20 and the “Mean Peak Serum [PTH] (pg/ml) ± SD” value stood at 22.91 pg/mL.
Take `O=C(O)CCCCCCc1nnc(-c2cc(Cl)cc(Cl)c2O)o1` [Compound 6]: in series [3], the “Mean Peak Serum Set (pg/ml ± SD)(SE)” value is given as 306 ± 339 (152) pg/ml. Besides, in series [1], the AUC came out at 716.96 and the “Mean Peak Serum [PTH] (pg/ml) ± SD” value was 14.44 pg/mL.
`Cc1ccc(-c2nnc(CCCCCCC(=O)O)o2)c(O)c1` [Compound 7]: in series [1], the AUC worked out at 4790.10 and the “Mean Peak Serum [PTH] (pg/ml) ± SD” value worked out at 138.9 ± 118.46 pg/mL.
As for `O=C(O)CCCCCCc1nnc(-c2ccccc2)o1` [Compound 10], in series [3], the “Mean Peak Serum Set (pg/ml ± SD)(SE)” value was 37 ± 55 pg/mL.

For the origin of these results see patent EP1156787B1, “OXADIAZOLE COMPOUNDS AND COMPOSITIONS FOR DELIVERING ACTIVE AGENTS” (priority 1999, dated 2000).
